Columns and labels:
A549 cells = test: CTG combination synergy (Bliss) with ZL-2201, A549; assay type: cell-based, human; details: 6 days of combination treatment
Protocol: Cells were seeded in 384-well plates at a density of 300–500 cells per well (depending upon the doubling time for each cell line) with 40 μL of media per well using a multidrop combi cell dispenser (Thermo Fisher Scientific). The cells were incubated at room temperature for 30 minutes to minimize edge effects. The next day, the cells were treated with drugs of interest at various concentrations using a D300e digital dispenser (Tecan). Following treatment, the cells were cultured at 37°C for 6 days. On day 6 after treatment initiation, the plates and Cell Titer Glo (CTG; Promega; PRG9243) were incubated at room temperature (protected from light) for 1 hour to reach equilibrium. After incubation, half of the CTG volume was added to one volume of cell culture medium in each well. The plates were then shaken for 30 seconds to induce cell lysis. […] The luminescent cell viability was measured using an EnVision plate reader (PerkinElmer). For cell viability, the data were analyzed using Excel (Microsoft) and GraphPad Prism (RRID:SCR_002798; Dotmatics). The data were first transformed to a log scale on the X-axis, then transformed values were normalized, and finally, normalized values were fitted using a nonlinear regression curve fit. For synergy, the data were analyzed using Excel, SynergyFinder ([28]), and Combenefit ([29]). […]

NCI-H1703 cells [1] = test: High-content imaging assay (γH2AX, phospho-histone H3, cleaved caspase 3); assay type: cell-based, human; details: single-agent treatment, 72 hours
Protocol: Cells were seeded in 96-well plates at a density of 10,000 cells per well with 100 μL of media per well. The cells were cultured overnight. The next day, the cells were treated with doxorubicin (0.006 μmol/L), ZL-2201 (0.1, 0.3, 0.5, 1, and 3.6 μmol/L), and a combination of doxorubicin and ZL-2201 for the indicated times. The cells were washed in PBS and fixed by adding Cytofix/Perm buffer (BD; 554714) at room temperature for 20 minutes. Cells were washed with Perm wash buffer and blocked with Perm wash buffer and 3% FBS at room temperature for 1 hour. The cells were then incubated with primary antibodies against γH2AX-Ser139 (RRID:AB_309864; Millipore; 05-636), pPH3 (Ser10; 6G3; RRID:AB_331748; Cell Signaling Technology; 9706) and cleaved caspase 3 (Asp175; 5A1E; RRID:AB_2070042; Cell Signaling Technology; 9664) overnight at 4°C. Cells were washed the following day and incubated with secondary antibodies (Alexa Fluor 488; Invitrogen; A32723 or A32731 and Alexa Fluor 647; A32733) at room temperature for 45 minutes in the dark. The cells were washed and stained with Hoescht (Thermo Fisher Scientific; H3570) at room temperature for 15 minutes in the dark. Images were obtained and quantified using the ImageXpress Micro Confocal High-Content Imaging System (Molecular Devices). A total of 16 fields were obtained per image for each timepoint and treatment groups.

NCI-H1703 cells [2] = details: NCI-H1703, Bliss, 6 days of combination treatment
Protocol: (§1) Cells were seeded in 384-well plates at a density of 300–500 cells per well (depending upon the doubling time for each cell line) with 40 μL of media per well using a multidrop combi cell dispenser (Thermo Fisher Scientific). The cells were incubated at room temperature for 30 minutes to minimize edge effects. The next day, the cells were treated with drugs of interest at various concentrations using a D300e digital dispenser (Tecan). Following treatment, the cells were cultured at 37°C for 6 days. On day 6 after treatment initiation, the plates and Cell Titer Glo (CTG; Promega; PRG9243) were incubated at room temperature (protected from light) for 1 hour to reach equilibrium. After incubation, half of the CTG volume was added to one volume of cell culture medium in each well. The plates were then shaken for 30 seconds to induce cell lysis. The cells were then incubated at room temperature for 12 minutes protected from light to stabilize the luminescence signal. The luminescent cell viability was measured using an EnVision plate reader (PerkinElmer). For cell viability, the data were analyzed using Excel (Microsoft) and GraphPad Prism (RRID:SCR_002798; Dotmatics). […] For synergy, the data were analyzed using Excel, SynergyFinder ([28]), and Combenefit ([29]). […]

NCI-H1703 cells [3] = test: Cell Titer Glo cellular cytotoxicity assay, NCI-H1703; assay type: cell-based; details: Homo sapiens, NCI-H1703, 144 h; H1703, 6 days, representative experiment, unit not readable in the picture; read-out: IC50 (Fig. 3B)
Protocol: as §1

COc1cccc2c1C(=O)c1c(O)c3c(c(O)c1C2=O)C[C@@](O)(C(=O)CO)C[C@@H]3O[C@H]1C[C@H](N)[C@H](O)[C@H](C)O1 [doxorubicin]
synergy score in combination with ZL-2201 (A549 cells): > 30
cleaved caspase 3 (apoptosis) level (NCI-H1703 cells [1]): did not alter
phospho-histone H3 (mitotic index) level (NCI-H1703 cells [1]): did not alter
synergy score in combination with ZL-2201 (NCI-H1703 cells [2]): > 30
IC50 (NCI-H1703 cells [3]): 4 nM

Source: PMC10473160 (Cancer Research Communications, 2023)
